Laboratory results taken from US11584765B2 (priority 2017, dated 2023).
Structures can show the parent of a compound that is named as a salt.

System: C57BL/6 mice
Assay: animal or person
Assay type: in vivo
Details: Mus musculus, sc, 0.5 h, s.c. administration, 30 min, 55° C. water, read-out: ED50 (mg/kg) at 30 min on C57BL/6 mice in Warm-water Tail-flick Test

First: CC(=O)Nc1ccc(CN2CCC(CCc3ccccc3)(C3C=CCO3)CC2)cc1 (centres unmarked) [Compound 74, N-(4-((4-(2,5-dihydrofuian-2-yl)-4-phenethylpiperidin-1-yl)methyl)phenyl)acetamide]
Second: CC(=O)Nc1ccc(CN2CCC(CCc3ccccc3)(C3(C)CC=CCO3)CC2)cc1.Cl (centres unmarked) [Compound 164, N-(4-((4-(2-methyl-3,6-dihydro-2H-pyran-2-yl)-4-phenethylpiperidin-1-yl)methyl)phenyl)acetamide HCl]
The ED50 of the first is lower: less than 10 mg/kg for the first, greater than 10 mg/kg for the second.

`COC1(CCc2ccccc2)CCN(Cc2ccc(NC(C)=O)cc2)CC1` [Compound 75, N-(4-((4-methoxy-4-phenethylpiperidin-1-yl)methyl)phenyl)acetamide] and `COCCC1(CCc2ccccc2)CCN(Cc2ccc(NC(C)=O)cc2)CC1.Cl` [Compound 76, N-(4-((4-(2-methoxyethyl)-4-phenethylpiperidin-1-yl)methyl)phenyl)acetamide HCl] cannot be ordered by ED50: greater than 10 mg/kg for the first, greater than 10 mg/kg for the second.

`CCOC(C)(C)[C@@]1(CCc2cccs2)CCN(C(C)(C)c2ccc(C)nc2)C1` [Compound 402, (S)-5-(2-(3-(2-ethoxypropan-2-yl)-3-(2-(thiophen-2-yl)ethyl)pyrrolidin-1-yl)propan-2-yl)-2-methylpyridine] and `Cc1ccc(C(C)(C)N2CC[C@@](CO)(CCc3cccs3)C2)cn1` [Compound 411, (S)-(1-(2-(6-methylpyridin-3-yl)propan-2-yl)-3-(2-(thiophen-2-yl)ethyl)pyrrolidin-3-yl)methanol] cannot be ordered by ED50: less than 10 mg/kg for the first, less than 10 mg/kg for the second.

`CCOC[C@@]1(CCc2nccn2C)CCN(C(C)(C)c2ccc(C)nc2)C1.Cl` [Compound 445, (S)-5-(2-(3-(ethoxymethyl)-3-(2-(1-methyl-1H-imidazol-2-yl)ethyl)pyrrolidin-1-yl)propan-2-yl)-2-methylpyridine HCl] and `CCOCC1(CCc2cc(C)cs2)CCN(Cc2ccc(C)nc2)C1` (centres unmarked) [Compound 297, 5-((3-(ethoxymethyl)-3-(2-(4-methylthiophen-2-yl)ethyl)pyrrolidin-1-yl)methyl)-2-methylpyridine] cannot be ordered by ED50: less than 10 mg/kg for the first, less than 10 mg/kg for the second.

`CCOC[C@@]1(CN(C)c2ccccc2)CCN(Cc2cccnc2)C1.Cl` [Compound 443, (S)-N-((3-(ethoxymethyl)-l-(pyridin-3-ylmethyl)pyrrolidin-3-yl)methyl)-N-methylaniline HCl] and `CCOC[C@@]1(CCc2ccccc2)CCN(Cc2ccc(C)nc2)C1` [Compound 319, (S)-5-((3-(ethoxymethyl)-3-phenethylpyrrolidin-1-yl)methyl)-2-methylpyridine] cannot be ordered by ED50: less than 10 mg/kg for the first, less than 10 mg/kg for the second.

Compared with `CCOCC1(/C=C/c2ccccn2)CCN(Cc2ccc(NC(C)=O)cc2)CC1` [Compound 166, (E)-N-(4-((4-(ethoxymethyl)-4-(2-(pyridin-2-yl)vinyl)piperidin-1-yl)methyl)phenyl)acetamide], `CCOCC1(CCc2ccccc2)CCN(Cc2ccc(NC(C)=O)cc2)CC1` [Compound 59, N-(4-((4-(ethoxymethyl)-4-phenethylpiperidin-1-yl)methyl)phenyl)acetamide] is lower in ED50: greater than 10 mg/kg for the first, less than 10 mg/kg for the second.

Compared with `CCOCC1(CCc2cccs2)CCN(Cc2cnn(C(C)C)c2)CC1` [Compound 270, 4-(ethoxymethyl)-1-((1-isopropyl-1H-pyrazol-4-yl)methyl)-4-(2-(thiophen-2-yl)ethyl)piperidine HCl], `CCOCC1(CCc2cccs2)CCN(Cc2cccnc2)CC1` [Compound 247, 3-((4-(ethoxymethyl)-4-(2-(thiophen-2-yl)ethyl)piperidin-1-yl)methyl)pyridine] is lower in ED50: greater than 10 mg/kg for the first, less than 10 mg/kg for the second.

`NC(=O)c1ccc(CN2CCC(CCc3ccccc3)(c3ccccn3)CC2)cc1` [Compound 55, 4-((4-phenethyl-4-(pyridin-2-yl)piperidin-1-yl)methyl)benzamide] and `CC(C)C(=O)Nc1ccc(CN2CCC(CCc3ccccc3)(c3ccccn3)CC2)cc1` [Compound 18, N-(4-((4-phenethyl-4-(pyridin-2-yl)piperidin-1-yl)methyl)phenyl)iso-butyramide] cannot be ordered by ED50: greater than 10 mg/kg for the first, greater than 10 mg/kg for the second.

`CC(=O)Nc1ccc(CN2CCC(CCc3ccccc3)(C3OCC3(C)C)C2)cc1` (centres unmarked) [Compound 201, N-(4-((3-(3,3-dimethyloxetan-2-yl)-3-phenethylpyrrolidin-1-yl)methyl)phenyl)acetamide] and `CC(=O)Nc1ccc(CN2CCC(CCc3ccccc3)(C3(C)CCCO3)C2)cc1` (centres unmarked) [Compound 200, N-(4-((3-(2-methyltetrahydro-furan-2-yl)-3-phenethylpyrrolidin-1-yl)methyl)phenyl)acetamide] cannot be ordered by ED50: less than 10 mg/kg for the first, less than 10 mg/kg for the second.

`CC(=O)Nc1ccc(CN2CCC(CCc3ccccc3)(c3nccn3C)CC2)cc1` [Compound 34, N-(4-((4-(1-methyl-1H-imidazol-2-yl)-4-phenethylpiperidin-1-yl)methyl)phenyl)acetamide] and `O=C(Nc1ccc(CN2CCC(CCc3ccccc3)(c3ccccn3)CC2)cc1)C(F)(F)F` [Compound 50, 2,2,2-trifluoro-N-(4-((4-phenethyl-4-(pyridin-2-yl)piperidin-1-yl)methyl)phenyl)acetamide] cannot be ordered by ED50: greater than 10 mg/kg for the first, greater than 10 mg/kg for the second.

`CCOCC1(CCc2ccccc2)CCN(Cc2ccc(B3OC(C)(C)C(C)(C)O3)cc2)CC1` [Compound 152, 4-(ethoxymethyl)-4-phenethyl-1-(4-(4,4,5,5-tetramethyl-1,3,2-dioxaborolan-2-yl)benzyl)piperidine] and `CCOCC1(CCc2ccccc2)CCN(Cc2ccc(NC(=O)N(C)C)cc2)CC1` [Compound 116, 3-(4-((4-(ethoxymethyl)-4-phenethylpiperidin-1-yl)methyl)phenyl)-1,1-dimethylurea] cannot be ordered by ED50: greater than 10 mg/kg for the first, greater than 10 mg/kg for the second.

First: c1ccc(CCC2(C3CCCO3)CCN(Cc3cccnc3)C2)cc1 (centres unmarked) [Compound 226, 3-((3-phenethyl-3-(tetrahydrofuran-2-yl)pyrrolidin-1-yl)methyl)pyridine]
Second: Cc1ccncc1CN1CCC(CCc2ccccc2)(C2CCCO2)C1 (centres unmarked) [Compound 262, 4-methyl-3-((3-phenethyl-3-(tetrahydrofuran-2-yl)pyrrolidin-1-yl)methyl)pyridine]
The ED50 of the first is lower: less than 10 mg/kg for the first, greater than 10 mg/kg for the second.

`CC(=O)Nc1ccc(CN2CCC(CCc3ccsc3)(C3CCO3)CC2)cc1` (centres unmarked) [Compound 185, N-(4-((4-(oxetan-2-yl)-4-(2-(thiophen-3-yl)ethyl)piperidin-1-yl)methyl)phenyl)acetamide] and `CCOCC1(CCc2cccs2)CCN(Cc2ccc(NC(C)=O)cc2)CC1.Cl` [Compound 102, N-(4-((4-(ethoxymethyl)-4-(2-(thiophen-2-yl)ethyl)piperidin-1-yl)methyl)phenyl)acetamide HCl] cannot be ordered by ED50: less than 10 mg/kg for the first, less than 10 mg/kg for the second.

First: CCOCC1(CCc2cc3ccccc3s2)CCN(Cc2ccc(C)nc2)C1 (centres unmarked) [Compound 301, 5-((3-(2-(benzo[b]thiophen-2-yl)ethyl)-3-(ethoxy-methyl)pyrrolidin-1-yl)methyl)-2-methylpyridine]
Second: CCOC[C@@]1(CCc2ccccc2)CCN(Cc2ccc(C)nc2C)C1 [Compound 307, (S)-3-((3-(ethoxymethyl)-3-phenethylpyrrolidin-1-yl)methyl)-2,6-dimethylpyridine]
The ED50 of the first is higher: greater than 10 mg/kg for the first, less than 10 mg/kg for the second.

`CCOCC1(CCc2ccccc2)CCN(Cc2cccc(NC(C)=O)c2)CC1` [Compound 176, N-(3-((4-(ethoxymethyl)-4-phenethylpiperidin-1-yl)methyl)phenyl)acetamide] and `CCOCC1(CCc2ccc(F)cc2)CCN(Cc2ccc(NC(C)=O)cc2)CC1` [Compound 104, N-(4-((4-(ethoxymethyl)-4-(4-fluoro-phenethyl)piperidin-1-yl)methyl)phenyl)acetamide] cannot be ordered by ED50: greater than 10 mg/kg for the first, greater than 10 mg/kg for the second.

`CCOCC1(CCc2ccc(F)cc2)CCN(C(C)c2ccc(C)nc2)C1` (centres unmarked) [Compound 295, 5-(1-(3-(ethoxymethyl)-3-(4-fluoro-phenethyl)pyrrolidin-1-yl)ethyl)-2-methylpyridine] and `CCOCC1(CCc2ccccc2)CCN(C(CO)c2ccc(C)nc2)C1` (centres unmarked) [Compound 342, 2-(3-(ethoxymethyl)-phenethylpyrrolidin-1-yl)-2-(6-methylpyridin-3-yl)ethanol] cannot be ordered by ED50: less than 10 mg/kg for the first, less than 10 mg/kg for the second.

`CC(=O)Nc1ccc(CN2CCCC(CCc3ccccc3)(c3ccccn3)C2)cc1` (centres unmarked) [Compound 32, N-(4-((3-phenethyl-3-(pyridin-2-yl)piperidin-1-yl)methyl)phenyl)acetamide] and `c1ccc(CCC2(C3CCCO3)CCN(Cc3ccc(-c4ccco4)cc3)C2)cc1` (centres unmarked) [Compound 220] cannot be ordered by ED50: greater than 10 mg/kg for the first, greater than 10 mg/kg for the second.

`Cn1cccc1CN1CCC(CCc2ccccc2)(C2CCCO2)C1` (centres unmarked) [Compound 227, 1-methyl-2-((3-phenethyl-3-(tetrahydrofuran-2-yl)pyrrolidin-1-yl)methyl)-1H-pyrrole] and `c1ccc(CCC2(C3CCCO3)CCN(Cc3cccn3-c3cccnc3)C2)cc1` (centres unmarked) [Compound 193, 3-(2-((3-phenethyl-3-(tetrahydrofuran-2-yl)pyrrolidin-1-yl)methyl)-1H-pyrrol-1-yl)pyridine] cannot be ordered by ED50: greater than 10 mg/kg for the first, greater than 10 mg/kg for the second.

Going from `CCOCC1(CCc2ccsc2)CCN(Cc2cnn(C)c2)CC1` [Compound 232, 4-(ethoxymethyl)-1-((1-methyl-1H-pyrazol-4-yl)methyl)-4-(2-(thiophen-3-yl)ethyl)piperidine] to `CCOCC1(CCc2ccc(OC)cc2)CCN(Cc2cccnc2)C1` (centres unmarked) [Compound 292, 3-((3-(ethoxymethyl)-3-(4-methoxy-phenethyl)pyrrolidin-1-yl)methyl)pyridine], the ED50 rises from less than 10 mg/kg to greater than 10 mg/kg.

`CC(C)(c1cccnc1)N1CCC(CCc2cccs2)(c2ccccn2)CC1` [Compound 396, 2-(1-(2-(pyridin-3-yl)propan-2-yl)-4-(2-(thiophen-2-yl)ethyl)piperidin-4-yl)pyridine] and `CCOC[C@@]1(CCc2cccs2)CCN(C2(c3cccnc3)CC2)C1` [Compound 395, (S)-3-(1-(3-(ethoxymethyl)-3-(2-(thiophen-2-yl)ethyl)pyrrolidin-1-yl)cyclopropyl)pyridine] cannot be ordered by ED50: less than 10 mg/kg for the first, less than 10 mg/kg for the second.

With `CCOC[C@@]1(CCc2ccc(F)cc2)CCN(C2(c3cnc(C)cc3CC)CC2)C1` [Compound 436, (S)-5-(1-(3-(ethoxymethyl)-3-(4-fluoro-phenethyl)pyrrolidin-1-yl)cyclopropyl)-4-ethyl-2-methylpyridine] the ED50 was less than 10 mg/kg.
